Experimental data: patent US9695155B2, “Herbicidal substituted pyrimidinyloxy benzene compounds” (E. I. DU PONT DE NEMOURS AND COMPANY, priority 2013, dated 2017)

Experiments:
barnyardgrass [1] = assay: Test B flooded paddy test; format: in vivo, Echinochloa crus-galli; settings: Flood, 250 g ai/ha; 0 to 100 scale where 0 is no effect and 100 is complete control
In short: (§1)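 Post-emergence paddy-water application at the 2-leaf stage, with 3 cm flood kept for the whole test. Response was judged visually relative to controls after 13 to 15 greenhouse days, 0 indicating no effect and 100 complete control.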

pigweed [2] = assay: Test A postemergence; format: in vivo, Amaranthus retroflexus; settings: 0 to 100 scale where 0 is no effect and 100 is complete control
In short: (§2)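 Greenhouse pot test, loam/sand soil. Formulation: non-phytotoxic solvent mix plus surfactant. Pre: directed spray onto soil after sowing. Post: plants at 1–2 leaf, 2–10 cm. Rated visually vs untreated controls at ~10 d, 0 (no effect) to 100 (complete control).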

rice = assay: Test B flooded paddy test; format: in vivo, Oryza sativa; settings: Flood, 250 g ai/ha; 0 to 100 scale where 0 is no effect and 100 is complete control
In short: as §1

ragweed [3] = assay: Test A preemergence; format: in vivo, Ambrosia elatior; settings: for Plant response rating, Ragweed: 125 g ai/ha, 0 to 100 scale where 0 is no effect and 100 is complete control; for Ragweed plant response rating: 500 g ai/ha, 0 to 100 scale, 0 no effect, 100 complete control, approx. 10 days
In short: as §2

corn = assay: Test A postemergence; format: in vivo, Zea mays
In short: as §2

Heteranthera limosa = assay: Test B flooded paddy test; format: in vivo; settings: Flood, 250 g ai/ha; 0 to 100 scale where 0 is no effect and 100 is complete control
In short: as §1

kochia [4] = assay: Test A postemergence; format: in vivo, Kochia scoparia; settings: 0 to 100 scale where 0 is no effect and 100 is complete control
Text: (§3) Seeds of plant species selected from barnyardgrass (Echinochloa crus-galli), kochia (Kochia scoparia), ragweed (common ragweed, Ambrosia elatior), Italian ryegrass (Lolium multiflorum), large (Lg) crabgrass (Digitaria sanguinalis), giant foxtail (Setaria faberii), morningglory (Ipomoea spp.), pigweed (Amaranthus retroflexus), velvetleaf (Abutilon theophrasti), wheat (Triticum aestivum), and corn (Zea mays) were planted into a blend of loam soil and sand and treated preemergence with a directed soil spray using test chemicals formulated in a non-phytotoxic solvent mixture which included a surfactant.
(§4) At the same time, plants selected from these crop and weed species and also blackgrass (Alopecurus myosuroides), and galium (catchweed bedstraw, Galium aparine) were planted in pots containing the same blend of loam soil and sand and treated with postemergence applications of test chemicals formulated in the same manner. Plants ranged in height from 2 to 10 cm and were in the one- to two-leaf stage for the postemergence treatment. Treated plants and untreated controls were maintained in a greenhouse for approximately 10 days, after which time all treated plants were compared to untreated controls and visually evaluated for injury. Plant response ratings, summarized in Table A, are based on a 0 to 100 scale where 0 is no effect and 100 is complete control. A dash (-) response means no test result.

wheat = assay: Test A postemergence; format: in vivo, Triticum aestivum; settings: 0 to 100 scale where 0 is no effect and 100 is complete control
In short: as §2

pigweed [5] = assay: Test A preemergence; format: in vivo, Amaranthus retroflexus; settings: for Plant response rating, Pigweed: 125 g ai/ha, 0 to 100 scale where 0 is no effect and 100 is complete control; for Pigweed plant response rating: 500 g ai/ha, 0 to 100 scale, 0 no effect, 100 complete control, approx. 10 days
In short: as §2

kochia [6] = assay: Test A preemergence; format: in vivo, Kochia scoparia; settings: for Plant response rating, Kochia: 125 g ai/ha, 0 to 100 scale where 0 is no effect and 100 is complete control; for Kochia plant response rating: 500 g ai/ha, 0 to 100 scale, 0 no effect, 100 complete control, approx. 10 days
In short: as §2

galium = assay: Test A postemergence; format: in vivo, Galium aparine; settings: 0 to 100 scale where 0 is no effect and 100 is complete control
In short: as §2

giant foxtail [7] = assay: Test A preemergence; format: in vivo, Setaria faberii; settings: for Plant response rating, Foxtail, Giant: 125 g ai/ha, 0 to 100 scale where 0 is no effect and 100 is complete control; for Foxtail, Giant plant response rating: 500 g ai/ha, 0 to 100 scale, 0 no effect, 100 complete control, approx. 10 days
In short: as §2

blackgrass = assay: Test A postemergence; format: in vivo, Alopecurus myosuroides
Text: as §3, §4

barnyardgrass [8] = assay: Test A postemergence; format: in vivo, Echinochloa crus-galli
In short: as §2

giant foxtail [9] = assay: Test A postemergence; format: in vivo, Setaria faberii; settings: 0 to 100 scale where 0 is no effect and 100 is complete control
In short: as §2

sedge, umbrella = assay: Test B flooded paddy test; format: in vivo, Cyperus difformis; settings: Flood, 250 g ai/ha; 0 to 100 scale where 0 is no effect and 100 is complete control
In short: as §1

Italian ryegrass [10] = assay: Test A postemergence; format: in vivo, Lolium multiflorum; settings: 0 to 100 scale where 0 is no effect and 100 is complete control
In short: as §2

Italian ryegrass [11] = assay: Test A preemergence; format: in vivo, Lolium multiflorum; settings: for Plant response rating, Ryegrass, Italian: 125 g ai/ha, 0 to 100 scale where 0 is no effect and 100 is complete control; for Ryegrass, Italian plant response rating: 500 g ai/ha, 0 to 100 scale, 0 no effect, 100 complete control, approx. 10 days
In short: as §2

barnyardgrass [12] = assay: Test A preemergence; format: in vivo, Echinochloa crus-galli; settings: for Plant response rating, Barnyardgrass: 125 g ai/ha, 0 to 100 scale where 0 is no effect and 100 is complete control; for Barnyardgrass plant response rating: 500 g ai/ha, 0 to 100 scale, 0 no effect, 100 complete control, approx. 10 days
In short: as §2

ragweed [13] = assay: Test A postemergence; format: in vivo, Ambrosia elatior; settings: 0 to 100 scale where 0 is no effect and 100 is complete control
Text: as §3, §4

[14] = 125 g ai/ha, 0 to 100 scale where 0 is no effect and 100 is complete control
[15] = 500 g ai/ha, 0 to 100 scale, 0 no effect, 100 complete control
[16] = 500 g ai/ha, 0 to 100 scale where 0 is no effect and 100 is complete control

| SMILES | Plant response rating, Barnyardgrass (barnyardgrass [1]) | Plant response rating, Pigweed (pigweed [2]; 125 g ai/ha) | Plant response rating, Pigweed (pigweed [2]; 500 g ai/ha) | Plant response rating, Rice (rice) | Plant response rating, Ragweed (ragweed [3]) | Ragweed plant response rating (ragweed [3]) | Plant response rating, Corn (corn; [14]) | Plant response rating, Ducksalad (Heteranthera limosa) | Plant response rating, Kochia (kochia [4]; 125 g ai/ha) | Plant response rating, Kochia (kochia [4]; 500 g ai/ha) | Plant response rating, Wheat (wheat; 125 g ai/ha) | Plant response rating, Wheat (wheat; 500 g ai/ha) | Plant response rating, Pigweed (pigweed [5]) | Pigweed plant response rating (pigweed [5]) | Plant response rating, Kochia (kochia [6]) | Kochia plant response rating (kochia [6]) | Plant response rating, Galium (galium; 125 g ai/ha) | Plant response rating, Galium (galium; 500 g ai/ha) | Plant response rating, Foxtail, Giant (giant foxtail [7]) | Foxtail, Giant plant response rating (giant foxtail [7]) | further results |
| --- | --- | --- | --- | --- | --- | --- | --- | --- | --- | --- | --- | --- | --- | --- | --- | --- | --- | --- | --- | --- | --- |
| CC(C)(C)c1cnn(-c2c(C#N)cccc2Oc2ncc(Cl)cn2)c1 [Compound 82] | 0 | 10 | 40 | 0 | 0 | 0 | 0 | 30 | 0 | 10 | 0 | 30 | 0 | 60 | 0 | 0 | 10 | 20 | 10 | 70 | Plant response rating, Corn (corn; [15]): 10; Plant response rating, Blackgrass (blackgrass; [14]): 10; Plant response rating, Blackgrass (blackgrass; [15]): 50; Plant response rating, Barnyardgrass (barnyardgrass [8]; [14]): 0; Plant response rating, Barnyardgrass (barnyardgrass [8]; [15]): 20; Plant response rating, Foxtail, Giant (giant foxtail [9]; 125 g ai/ha): 0; Plant response rating, Foxtail, Giant (giant foxtail [9]; 500 g ai/ha): 20; Plant response rating, Sedge, Umbrella (sedge, umbrella): 0; Plant response rating, Ryegrass, Italian (Italian ryegrass [10]; 125 g ai/ha): 0; Plant response rating, Ryegrass, Italian (Italian ryegrass [10]; 500 g ai/ha): 20; Plant response rating, Ryegrass, Italian (Italian ryegrass [11]): 0; Ryegrass, Italian plant response rating (Italian ryegrass [11]): 0; Plant response rating, Barnyardgrass (barnyardgrass [12]): 0; Barnyardgrass plant response rating (barnyardgrass [12]): 30; Plant response rating, Ragweed (ragweed [13]; 125 g ai/ha): 0; Plant response rating, Ragweed (ragweed [13]; 500 g ai/ha): 10 |
| N#Cc1cnn(-c2c(C#N)cccc2Oc2ncc(I)cn2)c1 [Compound 91] | 0 | 10 | 50 | 0 | 0 | 0 | 0 | 0 | 10 | 30 | 0 | 10 | 70 | 90 | 30 | 90 | 40 | 70 | 10 | 30 | Plant response rating, Corn (corn; [16]): 0; Plant response rating, Blackgrass (blackgrass; [14]): 0; Plant response rating, Blackgrass (blackgrass; [16]): 30; Plant response rating, Barnyardgrass (barnyardgrass [8]; [14]): 0; Plant response rating, Barnyardgrass (barnyardgrass [8]; [16]): 10; Plant response rating, Foxtail, Giant (giant foxtail [9]; 125 g ai/ha): 10; Plant response rating, Foxtail, Giant (giant foxtail [9]; 500 g ai/ha): 10; Plant response rating, Sedge, Umbrella (sedge, umbrella): 0; Plant response rating, Ryegrass, Italian (Italian ryegrass [10]; 125 g ai/ha): 0; Plant response rating, Ryegrass, Italian (Italian ryegrass [10]; 500 g ai/ha): 0; Plant response rating, Ryegrass, Italian (Italian ryegrass [11]): 0; Ryegrass, Italian plant response rating (Italian ryegrass [11]): 30; Plant response rating, Barnyardgrass (barnyardgrass [12]): 0; Barnyardgrass plant response rating (barnyardgrass [12]): 0; Plant response rating, Ragweed (ragweed [13]; 125 g ai/ha): 10; Plant response rating, Ragweed (ragweed [13]; 500 g ai/ha): 30 |
